Measurements published in patent US9951051B2, “Process for producing alkynylketone derivative” (Shionogi & Co., Ltd., priority 2014, dated 2018).
Counter-ions that a name gives are not always drawn.

Assay: Solubility test of methanesulfonate of Compound represented by Formula (II″)
Assay type: physicochemical
Conditions: HPLC method A; for concentration in supernatant solution (solubility): 20 to 25 °C, slurry stirred over two hours; for concentration of crystalline form dissolved into the solution: Conditions in Example 2 (DMSO/NMM/THF/MeCN), 0 °C
Method: Crystalline form of methanesulfonate of Compound represented by Formula (II″) and crystalline form of free form of Compound represented by Formula (II″) were suspended in tetrahydrofuran or acetonitrile, respectively. The slurries were stirred at 20° C. to 25° C. for over two hours, and then the concentration in each supernatant solution was measured (HPLC method A). The HPLC results of the concentration in each supernatant solution are indicated as Table 12.
Moreover, the concentration of each crystalline form being dissolved into the solution at 0° C. in Step 1 (Step to obtain the crystalline form of methanesulfonate) and Step 2 (Step to obtain the crystalline form of free form) in Example 2 was measured by HPLC method A and compared (Table 12).

| Structure (SMILES) | concentration in supernatant solution (solubility) (Acetonitrile) [%] | concentration of crystalline form dissolved into the solution [%] | concentration of crystalline form dissolved into the solution (listed as methanesulfonate of Compound represented by (II″)) [%] | concentration in supernatant solution (solubility) (Tetrahydrofuran) [%] | concentration of crystalline form dissolved into the solution (listed as free form of Compound represented by (II″)) [%] |
| --- | --- | --- | --- | --- | --- |
| CC#CC(=O)c1ccc2ncnc(Nc3ccc(OCc4cccc(F)c4)c(Cl)c3)c2c1 [MsOH salt of Formula (II″)] | 0.05 | 3.1 | 3.1 | 0.05 | – |
| CC#CC(=O)c1ccc2ncnc(Nc3ccc(OCc4cccc(F)c4)c(Cl)c3)c2c1 [Free form of Formula (II″), 4-(3-chloro-4-(3-fluorobenzyloxy)phenylamino)-6-(1-oxo-2-butyn-1-yl)quinazoline] | 0.3 | 15.7 | – | 3.6 | 15.7 |
